{"source": "paper PMC3563359", "about": "(Nature communications, 2012)", "key": {"EDHF-mediated responses": {"system": "EDHF-mediated responses", "details": "cited from earlier work"}, "[1]": {"details": "cited from earlier work"}, "SK2-a channels": {"target": "SK2-a channels (Rattus norvegicus, UniProt P0DP29+P70604)", "sequence (P70604 whole entry, one chain of several)": "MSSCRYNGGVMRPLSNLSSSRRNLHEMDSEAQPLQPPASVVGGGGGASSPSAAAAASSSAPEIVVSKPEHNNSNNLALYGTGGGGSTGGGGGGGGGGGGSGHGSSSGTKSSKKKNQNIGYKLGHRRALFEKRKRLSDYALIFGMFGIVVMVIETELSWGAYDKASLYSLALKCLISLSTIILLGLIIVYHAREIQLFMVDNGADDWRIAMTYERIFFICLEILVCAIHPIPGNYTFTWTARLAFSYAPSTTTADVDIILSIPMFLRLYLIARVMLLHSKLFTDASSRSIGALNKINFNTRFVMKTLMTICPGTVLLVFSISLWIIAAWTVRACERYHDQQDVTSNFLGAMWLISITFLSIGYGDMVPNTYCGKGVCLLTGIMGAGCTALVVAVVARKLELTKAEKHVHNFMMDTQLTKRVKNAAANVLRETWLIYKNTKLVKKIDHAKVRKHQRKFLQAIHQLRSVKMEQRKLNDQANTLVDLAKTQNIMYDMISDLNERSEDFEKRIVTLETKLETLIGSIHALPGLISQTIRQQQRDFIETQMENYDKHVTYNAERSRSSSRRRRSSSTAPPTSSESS", "assay": "Potentiation of WT SK2-a channel currents, inside-out patch, TsA201 cells", "assay_type": "cell-based"}, "[2]": {"details": "ratio of EC50s, SK2-a, 200 nM Ca2+"}}}
{"smiles": "Nc1nc2c(ccc3ccccc32)s1", "note": "[SKA-31, Naphtho[1,2-d]thiazol-2-ylamine]", "values": [{"measurement": "effect on EDHF-mediated responses", "setting": "EDHF-mediated responses", "value": "enhances"}, {"measurement": "effect on blood pressure", "setting": "[1]", "value": "lowers the blood pressure"}]}
{"smiles": "NC(=O)Nc1ccccc1", "note": "[PHU, phenylurea]", "values": [{"measurement": "EC50", "setting": "SK2-a channels", "value": "1610 ± 200", "unit": "µM"}, {"measurement": "Hill coefficient of potentiation of SK2-a channel activity", "setting": "SK2-a channels; 200 nM Ca2+, inside-out patch", "value": "1.81 ± 0.22"}, {"measurement": "fold less potent compared to NS309", "setting": "SK2-a channels; [2]", "value": "more than 3600 fold"}, {"measurement": "fold less potent than DCEBIO", "setting": "SK2-a channels; [2]", "value": "~75", "unit": "fold"}]}
